# Laboratory results: PubChem BioAssay (NCI)
#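 Each compound was tested at five concentrations against cells in 96-well plates for 48 hours. GI50 is the concentration that inhibits growth by half. TGI marks complete inhibition of growth.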
# Key:
# Experiment in all cases: NCI anticancer screen, dose series, 48 h
# IGROV1 ovarian = tested on: IGROV1 ovarian
# LOX IMVI melanoma = tested on: LOX IMVI melanoma
# MOLT-4 leukemia = tested on: MOLT-4 leukemia
# NCI-H226 lung = tested on: NCI-H226 lung
# NCI-H460 lung = tested on: NCI-H460 lung
# NCI/ADR-RES ovarian = tested on: NCI/ADR-RES ovarian
# OVCAR-5 ovarian = tested on: OVCAR-5 ovarian
# SK-OV-3 ovarian = tested on: SK-OV-3 ovarian
# T-47D breast = tested on: T-47D breast
# UACC-257 melanoma = tested on: UACC-257 melanoma
SMILES,GI50 (IGROV1 ovarian) [µM],TGI (IGROV1 ovarian) [µM],GI50 (LOX IMVI melanoma) [µM],TGI (LOX IMVI melanoma) [µM],GI50 (MOLT-4 leukemia) [µM],TGI (MOLT-4 leukemia) [µM],GI50 (NCI-H226 lung) [µM],TGI (NCI-H226 lung) [µM],GI50 (NCI-H460 lung) [µM],TGI (NCI-H460 lung) [µM],GI50 (NCI/ADR-RES ovarian) [µM],TGI (NCI/ADR-RES ovarian) [µM],GI50 (OVCAR-5 ovarian) [µM],TGI (OVCAR-5 ovarian) [µM],GI50 (SK-OV-3 ovarian) [µM],TGI (SK-OV-3 ovarian) [µM],GI50 (T-47D breast) [µM],TGI (T-47D breast) [µM],GI50 (UACC-257 melanoma) [µM],TGI (UACC-257 melanoma) [µM]
CN(c1ccc(NC(=O)NCCN2CCOCC2)cc1)c1ccnc(Nc2ccc(CS(C)(=O)=O)cc2)n1,> 25,> 25,> 25,> 25,> 25,> 25,9.18,> 25,> 25,> 25,> 25,> 25,> 25,> 25,> 25,> 25,> 23.6,> 25,> 25,> 25
O=CC(O)C(O)C(OC1OC(CO)C(O)C(O)C1O)C(O)CO (stereo unspecified) (tested in a mixture with another compound),,71.9,,,,,,> 100,,> 100,,> 100,,> 100,,> 100,,> 100,,> 100
O=C(O)Cn1ccc(=O)c2c([N+](=O)[O-])cccc21,,> 100,,,,> 100,,> 100,,> 100,,> 100,,> 100,,> 100,,> 100,,> 100
COc1ncc2cc1NS(=O)(=O)c1cccc(c1)C(=O)NCC1=CC=C(S1)c1ncnc3c1SC2=C3C,0.0715,1.6,0.0902,0.499,,,0.47,2.6,0.37,2.55,0.542,9.63,0.169,4.02,0.378,4.07,0.0946,4.04,0.371,2.99
CN(C)CCNC(=O)c1cccc2cc3ccc4ccccc4c3nc12,,1.05,,0.256,,0.0678,,0.488,,0.163,,,,0.706,,0.679,,,,0.535
CCOC(=O)C1=CSC2=NC3=C(CCC/C3=C\c3cc(OC)c(OC)c(OC)c3)C(c3cc(OC)c(OC)c(OC)c3)N12 (stereo unspecified),,,,,,,2.4,> 100,,,,,> 100,> 100,,,3.83,> 100,1.73,> 100
O=S(=O)(Cc1ccccc1)SCc1ccccc1,,> 84.7,,30.9,,14.3,,54.4,,> 83.8,,,,> 100,,97.3,,,,76
O=[N+]([O-])c1ccc(/C=C\c2ccc3c(c2)OCO3)c([N+](=O)[O-])c1,,24.7,,27,,33.8,,,,54.5,,81.6,,35.5,,35.4,,> 100,,32
CN(C)CCS(=O)(=O)Nc1cc(-c2ccc3ncnc(Nc4ccc(F)c(Cl)c4)c3c2)cnc1Cl,0.0859,0.38,,,0.257,0.69,2.11,> 100,1.04,> 100,3.32,> 100,0.268,> 22.8,0.261,1.64,0.0941,0.635,0.775,6.81
